Legend:
Resistin-CAP1 binding = target: T1, Resistin-CAP1 binding (Homo sapiens, UniProt Q9HD89); assay: Resistin-CAP1 competitive binding assay (enzyme immunological method); conditions: for Resistin-CAP1 binding inhibitory effect: in words, FIG. 5a-5c; for binding inhibitory activity of Resistin-CAP1: 25 μM, 50 μM, and 100 μM, FIG. 8
T1 sequence (Q9HD89 19-108): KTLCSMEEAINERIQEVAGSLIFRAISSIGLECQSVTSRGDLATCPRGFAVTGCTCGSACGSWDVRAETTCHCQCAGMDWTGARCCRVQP
Description: Recombinant CAP-1 protein was attached to a plate for immunoassay overnight, washed, and then the attachment of other proteins was blocked with 1% BSA/PBS solution, and the recombinant Resistin to which mouse Fc was attached and the sample were pre-reacted for 1 hour. Then, the solution was dispensed on the plate and reacted at room temperature for 2 hours. After washing the plate, HRP to be attached to the mFc of Resistin bound to CAP-1 was dispensed and reacted for 1 hour. After washing, the substrate was dispensed and reacted for 30 minutes by HRP, and absorbance was measured at a wavelength of 450 nm with a microplate meter.

[1] = tested on: Resistin-induced TNF-α production in THP-1 cells; assay: TNF-alpha assay: Resistin-induced TNF-α production in THP-1 cells (ELISA); type: cell-based, human; conditions: for inhibitory effect on TNF-α induced by Resistin: in words, summary of Table 3b
Description: TNF-alpha assay was performed to examine the anti-inflammatory effect induced by the Resistin-CAP1 binding on the Elaeocarpus petiolatus extracts, fractions, and single compounds isolated therefrom.
After culturing for 1 hour, 2 μg/mL of human recombinant Resistin (Biovision) was treated and further cultured for 6 hours. Thereafter, the supernatant was recovered and stored at −70° C.
For TNF-alpha assay, Human TNF-alpha ELISA kit (BD bioscience) was used and analyzed according to the manufacturer's protocol.

THP-1 cells = assay: Cell viability of THP-1 cells (CytoX)
Description: After 1 hour, each sample was treated at a concentration of 5 μM. After culturing for 24 hours, 5 μL of CytoX (LPS solution, Korea) solution was added into each well and incubated for another 4 hours. Then, absorbance was measured at 450 nm. The cell viability was calculated according to the following equation with the value of the negative control treated with DMSO as 100%.

[2] = 10 μg/mL, RETN +, THP-1 cells, isolated compounds

Molecule	Resistin-CAP1 binding inhibitory effect (Resistin-CAP1 binding)	inhibition at 5 µg/mL ([1]; Homo sapiens, 5 μg/mL, RETN +, THP-1 cells, read-out: TNF-α Inhibition Rate (%, Average ± Standard Deviation)) [%]	inhibition at 10 µg/mL ([1]; Homo sapiens, 10 μg/mL, RETN +, THP-1 cells, isolated compounds, read-out: TNF-α Inhibition Rate (%, Average ± Standard Deviation)) [%]	inhibition at 20 µg/mL ([1]; Homo sapiens, 20 μg/mL, RETN +, THP-1 cells, read-out: TNF-α Inhibition Rate (%, Average ± Standard Deviation)) [%]	inhibitory effect on TNF-α induced by Resistin [1]	Viability (%, Average ± Standard Deviation) (THP-1 cells; 2.5 μg/mL) [%]	Viability (%, Average ± Standard Deviation) (THP-1 cells; 5 μg/mL) [%]	Viability (%, Average ± Standard Deviation) (THP-1 cells; 10 μg/mL, isolated compounds) [%]	Viability (%, Average ± Standard Deviation) (THP-1 cells; 20 μg/mL) [%]	TNF-α Inhibition Rate (%, Average ± Standard Deviation) ([1]; 5 μg/mL, RETN +, THP-1 cells) [%]	TNF-α Inhibition Rate (%, Average ± Standard Deviation) [1, 2] [%]	TNF-α Inhibition Rate (%, Average ± Standard Deviation) ([1]; 20 μg/mL, RETN +, THP-1 cells) [%]	binding inhibitory activity of Resistin-CAP1 (Resistin-CAP1 binding)
O=c1oc2c(O)c(O)cc3c(=O)oc4c(O)c(O)cc1c4c23 [Ellagic acid (6D), Ellagic acid]	concentration-dependent inhibitory effect	16.4 ± 5.12	27.4 ± 4.5	-18.6 ± 3.16	exhibited an inhibitory effect on TNF-α production	96.89 ± 0.05	98.73 ± 0.91	94.38 ± 0.13	89.21 ± 1.01				
Isorhamnetin-3-O-β-D-hexoside [Isorhamnetin-3-O-β-D-hexoside (6E)]	concentration-dependent inhibitory effect				exhibited an inhibitory effect on TNF-α production	101.71 ± 4.56	101.88 ± 0.10	95.02 ± 0.20	94.72 ± 0.28	43.06 ± 10.44	51.29 ± 5.76	59.53 ± 9.02	
C[C@H]1O[C@@H](Oc2c(-c3cc(O)c(O)c(O)c3)oc3cc(O)cc(O)c3c2=O)[C@@H](O)[C@@H](O)[C@@H]1O [Myricetin-3-O-α-L-rhamnoside (5E2), Myricetin-3-O-α-L-rhamnoside]	concentration-dependent inhibitory effect				exhibited an inhibitory effect on TNF-α production	99.54 ± 3.22	106.14 ± 0.93	98.85 ± 1.07	100.12 ± 0.64	28.57 ± 6.79	24.13 ± 3.31	33.64 ± 9.21	inhibited the binding of Resistin-CAP1 in a concentration-dependent manner
O=c1c(O)c(-c2cc(O)c(O)c(O)c2)oc2cc(O)cc(O)c12 [myricetin, Myricetin, reference compound]													no inhibitory activity

From patent publication US20230144344A1, “COMPOSITION FOR PREVENTING OR TREATING CARDIOVASCULAR AND METABOLIC DISEASES COMPRISING ELAEOCARPUS PETIOLATUS” (SEOUL NATIONAL UNIVERSITY HOSPITAL, priority 2020, published 2023)
